According to PMC11189301, “Structure of the human outer kinetochore KMN network complex” (Nature Structural & Molecular Biology, 2024):

Key:
MIS12 complex = test system: MIS12 complex; design: method as in PMID 24530301; details: compared with Nsl1 C-terminal peptide (residues 258–281); cited from earlier work
Knl1 = assay: SEC assessment of MIS12C^Nsl1ΔC binding to Knl1; design: species or system Homo sapiens; details: MIS12C^Nsl1ΔC (Nsl1 residues 265–281 deleted) + KNL1 at 4 µM each; 20 mM HEPES pH 7.8, 150 mM NaCl, 0.5 mM TCEP; Superose 6; at least two repeats
Protocol: Assessment of substitutions in the MIS12C–KNL1 interfaces
To test the effect of substitutions in the MIS12C–KNL1 interfaces, either wild-type MIS12C or MIS12C^Nsl1ΔC was mixed with either wild-type KNL1 or two mutants (KNL1^R2248D […] (KNL1^mut1), KNL1^S2270R S2272W (KNL1^mut2)) at 4 µM each in a buffer of 20 mM HEPES (pH 7.8), 150 mM NaCl and 0.5 mM TCEP, and 50 µl was loaded onto a Superose 6 size-exclusion column (Cytiva).
Extended Data Fig. 9 Biochemical validation of the MIS12C:Knl1 interface. a Coomassie blue-stained SDS-PAGE gels of the MIS12C:Knl1 interaction reconstitutions. MIS12C (WT) and MIS12C with Nsl1 truncated at the C-terminus (1–264 Nsl1 construct, MIS12C^Nsl1ΔC) were tested in their ability to bind either wild-type RWD domains of Knl1 (2131–2337 construct, labelled Knl1 for simplicity) or Knl1 mutants (R2248D/W2249S substitutions, Knl1^mut1, and S2270R/S2272W substitutions, Knl1^mut2, as well as S2270R/S2272W/R2248A/W2249S substitutions, Knl1^mut3). The binding experiments were repeated at least two independent times with identical results. The gels are aligned according to the fraction number of the protein sample eluted from the size exclusion column. b SEC elution chromatograms of all of the experiments described in (a). Source data

| Molecule | affinity of Knl1 for the whole MIS12 complex, in words (MIS12 complex) | MIS12C–Knl1 interaction by SEC, in words (Knl1) |
| --- | --- | --- |
| Knl1: outer kinetochore protein Knl1; prior affinity data of ref 11 | only slightly higher than its affinity for a peptide modeled on the C terminus of Nsl1 alone (residues 258–281) |  |
| MIS12C^Nsl1ΔC: MIS12C with Nsl1 truncated at the C-terminus (1–264 Nsl1 construct; residues 265–281 deleted) (protein, left off: double strep II (DS), C-terminal, state not stated) chain 1: MSVDPMTYEAQFFGFTPQTCMLRIYIAFQDYLFEVMQAVEQVILKKLDGIPDCDISPVQIRKCTEKFLCFMKGHFDNLFSKMEQLFLQLILRIPSNILLPEDKCKETPYSEEDFQHLQKEIEQLQEKYKTELCTKQALLAELEEQKIVQAKLKQTLTFFDELHNVGRDHGTSDFRESLVSLVQNSRKLQNIRDNVEKESKRLKIS chain 2: MAEASSANLGSGCEEKRHEGSSSESVPPGTTISRVKLLDTMVDTFLQKLVAAGSYQRFTDCYKCFYQLQPAMTQQIYDKFIAQLQTSIREEISDIKEEGNLEAVLNALDKIVEEGKVRKEPAWRPSGIPEKDLHSVMAPYFLQQRDTLRRHVQKQEAENQQLADAVLAGRRQVEELQLQVQAQQQAWQALHREQRELVAVLREPE chain 3: MTSVTRSEIIDEKGPVMSKTHDHQLESSLSPVEVFAKTSASLEMNQGVSEERIHLGSSPKKGGNCDLSHQERLQSKSLHLSPQEQSASYQDRRQSWRRASMKETNRRKSLHPIHQGITELSRSISVDLAESKRLGCLLLSSFQFSIQKLEPFLRDTKGFSLESFRAKASSLSEELKHFADGLETDGTLQKCFEDSNGKASDFSLEASVAEMKEYITKFSLERQTWDQLLLHYQQEAKEILSRGSTEAKITEVKVEPMTYLGSSQNEVLNTKPDYQKILQNQSKVFDCMELVMDELQGSVKQLQAFMDESTQCFQKVSVQLGKRSMQQLDPSPARKLLKLQLQNPPAIHGSGSGSCQ chain 4: MAGSPELVVLDPPWDKELAAGTESQALVSATPREDFRVRCTSKRAVTEMLQLCGRFVQKLGDALPEEIREPALRDAQWTFESAVQENISINGQAWQEASDNCFMDSDIKVLEDQFDEIIVDIATKRKQYPRKILECVIKTIKAKQEILKQYHPVVHPLDLKYDPDPAPHMENLKCRGETVAKEISEAMKSLPALIEQGEGFSQVLRMQPVIHLQRIHQEVFSSCHRKPDAKPENFITQIETTPTETASRKTSDMVLKRKQTKDC |  | reduced the interaction strength between Knl1 and MIS12C |
